From paper doi:10.1101/2021.12.13.472350v1, “An amphipathic and cationic antimicrobial peptide kills colistin resistant Gram-negative pathogens in vivo” (bioRxiv, 2021)
In brackets after ≈: the same amount, converted by molar mass. Marks after values point to notes of the source that are not given here. Peptide text beside a SMILES is read from it.

Key:
[1] = tested on: Acinetobacter baumannii AB167
[2] = tested on: Pseudomonas aeruginosa PAO1
[3] = tested on: Klebsiella pneumoniae ST512; details: ST512, KPC-3, ΔmgrB, L-Ara4N modified, mucoid; MHB-II, 37°C, ~5×10^5 CFU/ml, triplicate
[4] = tested on: Acinetobacter baumannii AB176R; details: AB176 lpxD::G739T (ΔlpxD), LPS deficient, MHB-II, 37°C, ~5×10^5 CFU/ml, triplicate
E. coli ATCC 25922 [5] = test: Time kill experiments; assay type: cell-based; details: detection limit 50 CFU
[6] = tested on: Klebsiella pneumoniae ATCC 13883; details: ATCC 13883
[7] = tested on: Acinetobacter baumannii ATCC 19606; details: ATCC 19606
[8] = tested on: Pseudomonas aeruginosa SNRC (PAO1 background); details: colistin resistance evolved laboratory isolate, MHB-II, 37°C, ~5×10^5 CFU/ml, triplicate
Eschericia coli ML-35p = details: LacI- LacY- LacZ+, MHB-II, 37°C, ~5×10^5 CFU/ml, triplicate
[9] = tested on: Pseudomonas aeruginosa ATCC 27853
[10] = tested on: Acinetobacter baumannii CS01
[11] = tested on: Acinetobacter baumannii CR17; details: CR17, CS01 pmrA::M12K; MHB-II, 37°C, ~5×10^5 CFU/ml, triplicate
A. baumannii ATCC 19606 = test: In vivo sepsis/peritonitis mouse infection model; details: NMRI mice infected IP, 10 mg/kg IP at 1 and 3 h
[12] = tested on: Acinetobacter baumannii AB176
E. coli ESBL20150072 = test: In vivo sepsis/peritonitis mouse infection model; details: NMRI mice infected IP
Description: Outbred female NMRI mice (NMRI; weight 26–30 g; Taconic, Denmark) were used throughout the study, as previously described ([69], [70]). […] Colistin is recommended at a dose of 5-10 mg/kg, according to the European Medicines Agency (EMA) ([71]). The animals were kept in Macrolon type III cages in groups of six and allowed free access to feed and water. Experiments were initiated after an acclimatization period of 7 days. Inoculation (bacterial infection) was performed by intraperitoneal (IP) injection of 0.5 ml bacterial suspension containing 2×10^7 CFU/ml and 5% (wt/vol) mucin (Sigma-Aldrich). During experiments, groups of eight mice per cage constituting one experimental unit were randomly assigned to treatment (5 mg/kg ChIP and 10 mg/kg ChIP or colistin 10 mg/kg and 24 mg/kg) or no treatment (vehicle). Peptide and colistin was administered as a single bolus injection IP (volume injected 0.2 ml) at 1 hours and again 3. At various times post-infection, ∼200 µL blood from the jaw/cheek was collected in Eppendorf tubes with anti-coagulate (Sarstedt, Nümbrecht, Germany). Peritoneal lavage was performed by injecting 2.0 ml of sterile physiological saline IP. After 1 minute of abdominal massage, the peritoneum was opened and peritoneal lavage fluid (PLF) withdrawn. PLF was immediately placed in an insulated 4 °C cooling box for transportation and kept on ice at 4 °C. The mouse peritonitis model was repeated in duplicates for E. coli ATCC 25922 and A. baumannii ATCC 19606 nad in triplicate for E. coli ESBL20150072, while only a single experiment was carried out on A. baumannii CR17. Animals were sacrificed at various times prior to and following infection. Data from repeated experiments were pooled for analyses. Quantification of bacterial load was performed by spot plating of blood and peritoneal fluid samples from the mice. Dilution series were made in sterile 0.9% NaCl solution, from which 20 μl was spotted on solid lactose agar plates (Bromthymole Blue plates, SSI Diagnostica). Bacterial counts were recorded after overnight incubation at 37 °C in ambient air. The detection limit was 50 CFU/ml. The clinical condition of the mice was determined using a self-developed clinical score. For this score, mouse behavior and appearance were observed and evaluated for the parameters piloerection, attitude, locomotion, breathing and curiosity and awarded a score from 0 to 5 by a blinded observer. 0 = no clinical signs, 1 = slightly ruffled fur, 2 = ruffled fur and strenuous breathing, 3 = 2 plus lethargy, 4 = 3 plus hunched posture and decreased activity, and 5 = moribund. No significant difference in the clinical score between groups was observed 2 and 4 h post treatment. All mice were recorded for score 2.

[13] = tested on: Eschericia coli ATCC 25922; assay type: cell-based
E. coli ATCC 25922 [14] = test: In vivo sepsis/peritonitis mouse infection model; details: NMRI mice infected IP; 10 mg/ml colistin as printed, IP at 1 and 3 h post infection
[15] = tested on: Eschericia coli BW25113 pACYC184; details: BW25113 with pACYC184; MHB-II, 37°C, ~5×10^5 CFU/ml, triplicate
[16] = tested on: Acinetobacter baumannii RC64; details: RC64, ATCC 19606 pmrB::R134C pmrB::A227V; MHB-II, 37°C, ~5×10^5 CFU/ml, triplicate
[17] = tested on: Pseudomonas aeruginosa Q5
[18] = tested on: Acinetobacter baumannii AB167R; details: AB167 lpxC::ISAba1, LPS deficient, MHB-II, 37°C, ~5×10^5 CFU/ml, triplicate
[19] = tested on: Klebsiella pneumoniae ATCC 700603; details: ATCC 700603, SHV-18, mucoid; MHB-II, 37°C, ~5×10^5 CFU/ml, triplicate
Eschericia coli ST131 = details: ST131, ESBL CTX-M-15; MHB-II, 37°C, ~5×10^5 CFU/ml, triplicate

## CC[C@H](C)CCCCC(=O)N[C@@H](CCN)C(=O)N[C@H](C(=O)N[C@@H](CCN)C(=O)N[C@H]1CCNC(=O)[C@H]([C@@H](C)O)NC(=O)[C@H](CCN)NC(=O)[C@H](CCN)NC(=O)[C@H](CC(C)C)NC(=O)[C@@H](CC(C)C)NC(=O)[C@H](CCN)NC1=O)[C@@H](C)O [Colistin, colistin] (HELM PEPTIDE1{[CC[C@H](C)CCCCC(=O)[*:2]].[Dab].T.[Dab].[Dab].[Dab].[dL].L.[Dab].[Dab].T}$PEPTIDE1,PEPTIDE1,5:R3-11:R2$$$V2.0; N-terminus assumed; bridges inferred)
[1]
  MIC: 0.5 µg/mL (≈ 0.428 µM)
[2]
  MIC: 0.5 µg/mL (≈ 0.428 µM)
[3]
  MIC: 128 µg/mL (≈ 109 µM)
[4]
  MIC: >256 µg/mL
E. coli ATCC 25922 [5]; 1xMIC
  cell viability after treatment: reduction in CFU to the detection limit
E. coli ATCC 25922 [5]; 3xMIC, over the first 5 hours
  cell viability after treatment: reduction in CFU to the detection limit
[6]
  MIC: 0.5 µg/mL (≈ 0.428 µM)
[7]
  MIC: 0.5 µg/mL (≈ 0.428 µM)
[8]
  MIC: >256 µg/mL
Eschericia coli MG1655
  MIC: 0.25 µg/mL (≈ 0.214 µM)
Eschericia coli ML-35p
  MIC: 0.25 µg/mL (≈ 0.214 µM)
Eschericia coli AMA 817
  MIC: 0.125 µg/mL (≈ 0.107 µM)
[9]
  MIC: 1 µg/mL (≈ 0.855 µM)
[10]
  MIC: 0.5 µg/mL (≈ 0.428 µM)
[11]
  MIC: >256 µg/mL
A. baumannii ATCC 19606; after 5 hours
  reduction of peritoneal bacterial titers relative to saline control: 3-4 log
A. baumannii ATCC 19606; after 5 hours, saline control around 1×10^8 CFU/ml
  peritoneal bacterial titers: 1×10^3-1×10^4 CFU/ml
A. baumannii ATCC 19606; detection limit 50 CFU/ml
  bacterial blood titers: reduce CFU/ml to the detection limit
[12]
  MIC: 0.5 µg/mL (≈ 0.428 µM)
E. coli ESBL20150072; 24 mg/kg IP at 1 and 3 h, mcr-1 genotype
  effect on peritoneal titers: no effect
E. coli ESBL20150072; colistin 24 mg/kg, similar to vehicle control
  bacterial blood stream titers: ~1×10^6 CFU/ml
[13]
  MIC: 0.125-0.25* μg/ml
E. coli ATCC 25922 [14]
  peritoneal bacterial titers compared with ChIP 5 mg/kg (2 logs reduction, 1-5×10^5 CFU/ml): similar
[15]
  MIC: 0.5 µg/mL (≈ 0.428 µM)
[16]
  MIC: 64 µg/mL (≈ 54.7 µM)
[17]
  MIC: >256 µg/mL
[18]
  MIC: >256 µg/mL
P. aeruginosa B3-CFI
  MIC: >256 µg/mL
[19]
  MIC: 2 µg/mL (≈ 1.71 µM)
Eschericia coli ST131
  MIC: 1 µg/mL (≈ 0.855 µM)
